Tested on: xylanase Shearzyme
Assay: Burst active site titration of xylanase
Type: biochemical
Details: for Burst B: pH 5.0, room temperature
Description: The synthesized burst active site titrant 2,4-dinitrophenyl 2-deoxy-2-flouro-β-D-xylopyranoside was dissolved in Milli Q water. 100 μl dissolved titrant was mixed with 50 μl assay buffer (50 mM sodium acetate, 0.0225% Brij 35, pH 5.0) and 50 μl of a purified sample of the commercial xylanase Shearzyme (available from Novozymes) diluted in Milli Q water in the wells of a microtiter plate. Final concentrations of 2,4-dinitrophenyl 2-deoxy-2-flouro-β-D-xylopyranoside were 0.5 mM and 1 mM, whereas the xylanase was added to give final absorbances at 280 nm of 13.4, 6.7 and 3.3. After mixing, absorbance was read at 405 nm at room temperature every 7 min for 30 hours using a SpectraMax Plus (Molecular Devices) microtiter plate reader. After subtraction of absorbances read in wells with same concentration of titrant but without enzyme, the measurements were fitted to the equation: A405=B*(1−exp(−(t+LT)*ln(2)/T1/2))+S*(t+LT)
where A405 is the absorbance at 405 nm, B is the burst in absorbance at 405 nm, t is the time from first measurement of absorbance, LT is the lag time from mixing of the reagents to first measurement of absorbance, T1/2 is the half time for the exponential burst phase and S is the slope due to hydrolysis of the enzyme 2-deoxy-2-fluoro-β-D-xylopyranose complex.

[1] = Xylanase A280 3.3, titrant 0.5 mM
[2] = Xylanase A280 3.3, titrant 1 mM
[3] = Xylanase A280 6.7, titrant 0.5 mM
[4] = Xylanase A280 6.7, titrant 1 mM
[5] = Xylanase A280 13.4, titrant 0.5 mM
[6] = Xylanase A280 13.4, titrant 1 mM

Slope S (hydrolysis of the enzyme 2-deoxy-2-fluoro-β-D-xylopyranose complex) [1]: 0.00 A405/h
Burst B [1]: 0.24 A405
Slope S (hydrolysis of the enzyme 2-deoxy-2-fluoro-β-D-xylopyranose complex) [2]: 0.00 A405/h
Burst B [2]: 0.23 A405
Slope S (hydrolysis of the enzyme 2-deoxy-2-fluoro-β-D-xylopyranose complex) [3]: 0.00 A405/h
Burst B [3]: 0.47 A405
Slope S (hydrolysis of the enzyme 2-deoxy-2-fluoro-β-D-xylopyranose complex) [4]: 0.00 A405/h
Burst B [4]: 0.48 A405
Slope S (hydrolysis of the enzyme 2-deoxy-2-fluoro-β-D-xylopyranose complex) [5]: 0.00 A405/h
Burst B [5]: 0.84 A405
Slope S (hydrolysis of the enzyme 2-deoxy-2-fluoro-β-D-xylopyranose complex) [6]: 0.00 A405/h
Burst B [6]: 0.90 A405
SMILES: O=[N+]([O-])c1ccc(O[C@@H]2OC[C@@H](O)[C@H](O)[C@H]2F)c([N+](=O)[O-])c1 [2,4-dinitrophenyl 2-deoxy-2-flouro-β-D-xylopyranoside]

From patent US20060205028A1, “Active-site titration of glycosyl hydrolases” (Novozymes A/S, priority 2003, published 2006)
